Laboratory results: ChEMBL document CHEMBL4433260, “Oxadiazole scaffolds in anti-tuberculosis drug discovery” (Bioorg Med Chem Lett, 2019)
Converted amounts (≈) assume the structure as drawn.

How the values were obtained:
[1] = tested on: Mycobacterium tuberculosis; test: Antimycobacterial activity against Mycobacterium tuberculosis H37Rv incubated for 5 days by alamar blue assay; format: functional; conditions: 120 h
[2] = tested on: Mycobacterium tuberculosis; test: Antimycobacterial activity against Mycobacterium tuberculosis H37Rv by alamar blue assay; format: functional
[3] = tested on: Mycobacterium tuberculosis; test: Antimycobacterial activity against Mycobacterium tuberculosis H37Rv measured after 28 days by Lowensteine-Jensen method; format: functional; conditions: 672 h
[4] = tested on: Mycobacterium tuberculosis; test: Antimycobacterial activity against Mycobacterium tuberculosis H37Rv at 250 ug/ml measured after 4 weeks by Lowensteine-Jensen method relative to control; format: functional; conditions: 672 h
[5] = tested on: Mycobacterium tuberculosis; test: Antimycobacterial activity against Mycobacterium tuberculosis H37Rv; format: functional
[6] = tested on: Mycobacterium tuberculosis; test: Antimycobacterial activity against Mycobacterium tuberculosis H37Rv at 100 ug/ml by alamar blue assay relative to control; format: functional
[7] = tested on: Mycobacterium tuberculosis; test: Antimycobacterial activity against non-replicating Mycobacterium tuberculosis H37Rv at 1.6 ug/ml relative to control; format: functional
[8] = tested on: Mycobacterium tuberculosis; test: Antimycobacterial activity against replicating Mycobacterium tuberculosis H37Rv at 8 ug/ml relative to control; format: functional
[9] = tested on: Mycobacterium tuberculosis; test: Antimycobacterial activity against Mycobacterium tuberculosis Erdman; format: functional
[10] = tested on: Mycolicibacterium smegmatis; test: Antimycobacterial activity against Mycobacterium smegmatis str. MC2 155; format: functional
[11] = tested on: Mycobacterium tuberculosis; test: Antitubercular activity against dormant stage of Mycobacterium tuberculosis H37Ra; format: functional
[12] = Inhibition of Mycobacterium tuberculosis H37Rv shikimate kinase using shikimic acid as substrate preincubated for 15 mins followed by substrate addition in presence of ATP by LC/MS analysis

Cn1c(-c2cccc(Cl)c2F)nc2cc(-c3nc(-c4ccc(Cl)cc4)no3)ccc21
MIC [1]: 1.6 µg/mL (≈ 3.64 µM)

Clc1ccc(-c2nnc(/N=C/c3ccco3)o2)cc1
MIC [2]: 3.12 µg/mL (≈ 11.4 µM)

Clc1nc2ccccc2cc1CN(c1ccccc1)c1nnc(-c2ccncc2)o1
MIC [3]: 60 to 200 µM (≈ 24.8 to 82.8 µg/mL)

Cc1nn(-c2ccccc2)c(Oc2cccc(C(F)(F)F)c2)c1-c1nnc(-c2ccc(Br)cc2)o1
inhibition at 250 µg/mL [4]: > 90%

Clc1ccc2nc(Cl)c(CN(c3ccccc3)c3nnc(-c4ccncc4)o3)cc2c1
MIC [3]: 60 to 200 µM (≈ 26.9 to 89.7 µg/mL)

Clc1ccc2nc(Cl)c(CN(c3ccccc3)c3nnc(-c4cccnc4)o3)cc2c1
MIC [3]: 60 to 200 µM (≈ 26.9 to 89.7 µg/mL)

Cc1ccc(-c2nnc(-c3c(C)nn(-c4ccccc4)c3Oc3ccc(F)cc3)o2)cc1
inhibition at 250 µg/mL [4]: > 90%

CO[C@H]1O[C@H](Cc2nnc(C)o2)[C@@H](OCc2ccccc2)[C@H](OCc2ccccc2)[C@H]1OCc1ccccc1
MIC [5]: 60 µM

COc1ccc(-c2nnc(-c3cc4cc(C)ccc4n4nnnc34)o2)cc1
inhibition at 100 µg/mL [6]: > 90%

O=C(Nc1nnc(-c2ccc(F)cc2)o1)c1ccc(Cl)cc1
inhibition at 1.6 µg/mL [7]: > 90%
inhibition at 8 µg/mL [8]: > 90%
MIC [9]: 1.6 µg/mL (≈ 5.04 µM)
MIC [10]: 0.4 µg/mL (≈ 1.26 µM)

Cn1c(-c2cccc(Cl)c2F)nc2cc(-c3nc(Cc4cccc(Cl)c4)no3)ccc21
MIC [1]: 1.6 µg/mL (≈ 3.53 µM)

Cc1ccc(-c2nnc(-c3c(C)nn(-c4ccccc4)c3Oc3cccc(F)c3)o2)cc1
inhibition at 250 µg/mL [4]: > 90%

Cc1ccc2nc(Cl)c(CN(c3ccccc3)c3nnc(-c4cccnc4)o3)cc2c1
MIC [3]: 60 to 200 µM (≈ 25.7 to 85.6 µg/mL)

Cn1c(-c2cccc(Cl)c2Cl)nc2cc(-c3nc(-c4ccc(Cl)cc4)no3)ccc21
MIC [1]: 1.6 µg/mL (≈ 3.51 µM)

Cc1ccc2c(c1)cc(-c1nnc(-c3ccncc3)o1)c1nnnn12
inhibition at 100 µg/mL [6]: > 90%

CC1(C)Cc2c(C#CCO)c(NC(=O)C(C)(C)C)cc(-c3nnc(-c4ccc(C(F)(F)F)cc4)o3)c2O1
IC90 [11]: 5.7 µM

Cn1c(-c2cccc(Cl)c2Cl)nc2cc(-c3nc(-c4ccccc4Cl)no3)ccc21
MIC [1]: 1.6 µg/mL (≈ 3.51 µM)

O=C(/C=C/c1ccccc1)Nc1nnc(C2CCCc3ccccc32)o1 (stereo not given)
IC50 [12]: 3.79 µM
MIC [5]: < 1 µg/mL

Cc1nn(-c2ccccc2)c(Oc2ccc(F)cc2)c1-c1nnc(-c2ccc(Br)cc2)o1
inhibition at 250 µg/mL [4]: > 90%

O=C(Nc1nnc(-c2ccccc2Cl)o1)c1cccc(Oc2ccccc2)c1
IC50 [12]: 3.43 µM
MIC [5]: < 1 µg/mL
